Source: patent US20170027973A1, “MODULARION OF INVARIANT NATURAL KILLER T CELLS IN THE TREATMENT OF SEPSIS” (LONDON HEALTH SCIENCES CENTRE RESEARCH INC., priority 2014, published 2017)

What was measured:
invariant TCR = conditions: C20:2 compared to OCH; cited from earlier work
serum IL-4 and IFN-γ = experiment: Serum IL-4 and IFN-γ by ELISA after i.p. glycolipid injection into naïve B6 mice; type: in vivo, mouse; conditions: compared to OCH
Protocol: FIG. 10: Effect of glycolipid agonists on cytokine expression in naïve B6 mice, and on iNKT cells in septic B6 mice. (a) Naïve B6 mice were injected i.p. with 4 μg OCH or KRN7000 or C20:2, and bled at 2, 12, and 24 hours post-injection. Serum samples were assayed for IL-4 and IFN-γ by enzyme-linked immunosorbent assay (ELISA). […] Vehicle-treated mice had cytokine levels below limits of detection. (b) B6 mice were given an intraperitoneal injection of fecal slurry (500 μL of a 90 mg/mL solution) to induce IAS and concomitantly treated with 4 μg of vehicle, OCH, or KRN7000. After 24 hours, mice were sacrificed, and cell suspensions from the liver and spleen were stained for the flow cytometric detection of CD1d tetramer+ TCRβ+iNKT cells.
(§1) Lyophilized OCH was generously provided by the National Institutes of Health (NIH) Tetramer Core Facility (Emory University, Atlanta, Ga.). Each vial containing 0.2 mg of OCH was solubilized in a vehicle solution containing 1 mL of sterile distilled water, 0.5% Tween 20, 56 mg of sucrose and 7.5 mg of histidine, and stored as aliquots at 4° C. until use. KRN7000 (α-GalCer, C26:0/C18:0) was purchased from Funakoshi Co. Ltd. (Tokyo, Japan), solubilized at 1 mg/ml in dimethylsulphoxide (DMSO), and stored as aliquots at −20° C. until use (29); the control vehicle was 2% DMSO in phosphate-buffered saline (PBS). C20:2 was synthesized and used as previously published (30, 31). For in vivo experiments, mice were injected intraperitoneally (i.p.) with a single dose of glycolipid (4 μg/dose) (30) within twenty minutes after induction of IAS.
Cytokine concentrations were determined by commercially available specific ELISA assays for IL-4 and IFN-γ (Ready-Set-Go kits, eBioscience). ODs were measured on a Benchmark Microplate Reader (Bio-Rad) at a wavelength of 450 nm for both cytokines.

[1] = system: B6 mice with intra-abdominal sepsis (IAS); experiment: Murine intra-abdominal sepsis (IAS) model: survival and murine sepsis score (MSS); type: in vivo, mouse; conditions: septic B6 mice
Protocol: Stool from the cecum of euthanized naïve B6 mice was expressed through an enterotomy, homogenized, and suspended in 0.9% normal saline (NS) to produce a fecal slurry at a final concentration of 90 mg/mL, for use in experiments on the same day. Mice were injected intraperitoneally with 500 μL fecal slurry or 0.9% normal saline (sham group). The mice were monitored and scored by two independent investigators—one of whom was blinded to the treatment—every 2-3 hours for the first 12 hours, and then every 1-2 hours thereafter. A murine sepsis score (MSS) was assigned to each mouse based on activity, eye movement, response to exogenous stimuli, breathing rate and pattern, and degree of piloerection (Shrum et al. BMC Research Notes 2014, 7:233). The MSS is a reliable and robust scoring system that has excellent inter-rater reliability (intra-class coefficient=0.96), high internal consistency (Cronbach α=0.92), and correlates with levels of certain pro-inflammatory cytokines such as IFN-γ and IL-1β during the experimental timeline (Shrum et al. BMC Research Notes 2014, 7:233). Mice were euthanized at 24 hours, or earlier if they were deemed to be in significant distress based on our scoring model. Euthanasia was carried out as described above. At the time of sacrifice, intra-cardiac blood was drawn into 1.5 mL micro-centrifuge tubes (BD Biosciences) and centrifuged for serum at 1000×g for 30 minutes at 4° C.
as §1

[2] = C20:2 compared to OCH; cited from earlier work
splenocyte apoptosis = experiment: Histology (H&E) and TUNEL staining of spleen, liver and omentum of septic B6 mice; type: in vivo, mouse; conditions: 24 hours
Source text: FIG. 6: Histopathology of septic B6 mice treated with glycolipid agonists of iNKT cells. […] Lymphocyte migration to the omentum is also ameliorated in OCH-treated mice compared to vehicle- and KRN7000-treated mice. There were no histopathological differences in the liver. Images are representative of 4 animals per treatment group (size bar, 50 μm). (b) Histopathological scoring of the degree of apoptosis observed within the spleens of sham and septic B6 mice treated with vehicle, KRN7000, or OCH (n=4 animals per treatment group). Apoptosis was defined histologically by the presence of cell clusters with nuclear shrinkage (karyorrhexis), dark eosinophilic cytoplasm, intact plasma membrane, and relative paucity of surrounding inflammatory cells within the splenic follicles on H&E staining. Scores assigned to each animal by a blinded independent pathologist were as follows: 0 for complete absence of apoptosis; 1 for mild presence of apoptosis (0-15% per follicle); 2 for moderate apoptosis (16-30% per follicle); and 3 for severe apoptosis (31-45% per follicle). ***p<0.0001 by two-tailed Mann Whitney U test.
Liver, spleen, and omentum from sham B6 mice, and vehicle-, OCH-, and KRN7000-treated septic B6 mice were fixed in 10% neutral buffered formalin, embedded in paraffin, sectioned, and stained with H&E or subjected to TUNEL staining using a commercially available kit (Calbiochem). At least four stained sections per spleen from four animals per treatment group were examined and scored for apoptosis by a board-certified veterinary pathologist (Welch) who was blinded to the study design. Apoptosis was defined histologically by the presence of cell clusters with nuclear shrinkage (karyorrhexis), dark eosinophilic cytoplasm, intact plasma membrane, and relative paucity of surrounding inflammatory cells within the splenic follicles on H&E staining (34). Scores assigned to each animal were as follows: 0 for complete absence of apoptosis; 1 for mild presence of apoptosis (0-15% per follicle); 2 for moderate apoptosis (16-30% per follicle); and 3 for severe apoptosis (31-45% per follicle). Photomicrographs were taken using a Nikon DS-Fi1 digital camera using NIS-elements software.

In the case of CCCCC/C=C\C/C=C\CCCCCCCCCC(=O)N[C@@H](CO[C@H]1O[C@H](CO)[C@H](O)[C@H](O)[C@H]1O)[C@H](O)[C@H](O)CCCCCCCCCCCCCC [C20:2], the “capacity to bind and activate iNKT cells” value (invariant TCR) is given as “significantly stronger”, the “Th2 response at 24 hours” value (serum IL-4 and IFN-γ) is given as “more pronounced” and the respiratory status ([1]; observed up to 24 hours) is given as “improved respiratory status”. The “course of MSS over time” value ([1]; up to 24 hours) was “continued to rise”, the “MSS between 20 and 24 hours” value ([1]; compared to vehicle-treated mice) was “significant reduction” and the half-life [2] was “relatively short”. For the same compound, the “apoptosis in histology compared to KRN7000-treated mice” value (splenocyte apoptosis) was “decrease” and the “degree of apoptosis compared to OCH-treated mice” value (splenocyte apoptosis) was “higher”.
